Measured values: US20110100079A1, “METHOD FOR IMPARTING STRESS TOLERANCE TO PLANT” (priority 2007, published 2011)

Key:
Assay type in all cases: in vivo
Settings in all cases: 23° C., leaf, 100 ppm, 2 weeks
potato = experiment: Example 9 drying stress test (potato), soil culture
Method: The environmental conditions in a climatic chamber were controlled so as to have a temperature of 23° C., an illuminance by a fluorescent light of 5000 Lux, and a daily light-dark cycle of a 16-hour light period and an 8-hour dark period. Potatoes as prepared above were transplanted in size-5 (15 cm) pots. During the test period, the pF value was controlled by adding a suitable amount of tap water once a day so as to attain a specific drying stress value. A treatment solution containing a compound of Table 5 in a specific concentration (the remainder was water) was prepared and sprayed onto the leaves or applied to the underground portions. […] A comparative example was constructed to reflect the drying stress-free optimum cultivation conditions to investigate the plant energizing ability. […] Moreover, when the products of the present invention and the comparative products were compared, the stress tolerance imparting ability of the products of the present invention was higher in respective drying stress conditions.

“Momotaro” tomato [1] = experiment: Example 6 salt stress test (tomato), hydroponic culture
Method: (§1) (a) Comparative example conditions (stress-free optimum growth conditions) Cultivation temperature: 23° C., EC: 1.3 mS/cm (Otsuka ½A formulation) (b) Example conditions (salt stress conditions) Cultivation temperature: 23° C., EC: 2.7, 3.9, 4.8 mS/cm (cultivation with Kureha gardening soil) (2) Illuminance: 5000 Lux (fluorescent light), light/dark cycle: 16 hours/8 hours (3) Employed soil: Kureha gardening soil manufactured by Kureha Corporation (fertilizer components: N:P:K=0.4:1.9:0.6 g/kg soil) (4) Employed solution culture medium: Otsuka ½A formulation: a mixed solution of Otsuka House No. 1 (N:P:K=10:8:27) 7.5 g/10 L and Otsuka House No. 2 (N:P:K:Ca=10:0:0:23) 5 g/10 L, total nitrogen: 130 ppm, phosphoric acid: 60 ppm, potassium: 203 ppm) (5) Cultivation period: 2 weeks (6) Plant preparation: A 50-cell tray was filled with Kureha gardening soil manufactured by Kureha Corporation (fertilizer components: N:P:K=0.4:1.9:0.6 g/kg soil), and seeds of a “Momotaro” tomato or tubers of a “Danshaku” potato were sowed, thinly covered with Kureha gardening soil, and sufficiently watered to allow the seeds or the tubers to sprout. When the leaves in the 2-leaf stage or the 5-leaf stage fully unfolded, the soil on the tomato roots or the potato roots was carefully washed away with running water, and a test was performed. (7) Test chemicals: POE (20) sorbitan monolauric acid ester: Reodol TW-L120 (Kao Corporation) POE (20) sorbitan monopalmitic acid ester: Reodol TW-P120 (Kao Corporation) POE (20) sorbitan monostearic acid ester: Reodol TW-S120 (Kao Corporation) POE (20) sorbitan monooleic acid ester: Reodol TW-O120 (Kao Corporation) Sorbitan monooleic acid ester: Emasol 0-10(F) (Kao Corporation) POE (6) sorbitan monooleic acid ester: Reodol TW-O106 (Kao Corporation) Alkyl (number of carbon atoms: 10) polyglucoside: AG-10LK (Kao Corporation) Alkyl (number of carbon atoms: 12 to 14) polyglucoside: AG-124 (Kao Corporation) Sucrose fatty acid ester (number of carbon atoms: C18, HLB: 5): S-570 (Mitsubishi-Kagaku Foods Corporation) Sucrose fatty acid ester (number of carbon atoms: C18, HLB: 9): S-970 (Mitsubishi-Kagaku Foods Corporation) Sucrose fatty acid ester (number of carbon atoms: C18, HLB: 11): S-1170 (Mitsubishi-Kagaku Foods Corporation) Sucrose fatty acid ester (number of carbon atoms: C18, HLB: 15): 5-1570 (Mitsubishi-Kagaku Foods Corporation) Sucrose fatty acid ester (number of carbon atoms: C16, HLB: 15): P-1570 (Mitsubishi-Kagaku Foods Corporation) Sucrose fatty acid ester (number of carbon atoms: C18:1, HLB: 15): O-1570 (Mitsubishi-Kagaku Foods Corporation) (8) Amount of treatment solution applied: 10 ml/specimen for leaf spraying, 250 ml/specimen for hydroponic culture (treatment of underground portion) (9) 50 ml/specimen for soil culture (treatment of underground portion)
The environmental conditions in a climatic chamber were controlled so as to have a temperature of 23° C., an illuminance by a fluorescent light of 5000 Lux, and a daily light-dark cycle of a 16-hour light period and an 8-hour dark period. Tomatoes as prepared above were planted in 250 ml polyethylene bottles each filled with a solution culture medium having a different EC value. Different EC values were achieved by taking a ½ Otsuka A formulation having an EC value of 1.3 as a standard and suitably increasing the fertilizer concentration through proportional counting. A treatment solution containing a compound of Table 1 in a specific concentration (the remainder was water) was prepared and sprayed onto the leaves or applied to the underground portion. In each test plot, 10 specimens were prepared for replication, and the average of the fresh weight of each specimen 2 weeks after the beginning of the test was calculated and expressed as a relative value where “100” indicates a result identical to that of the untreated plot of a given EC condition. […]

“Momotaro” tomato [2] = experiment: Example 6 salt stress test (tomato), soil culture
Method: (1) A. soil culture (a) Comparative example conditions (stress-free optimum growth conditions) Cultivation temperature: 23° C., EC: 1.0 mS/cm (cultivation with Kureha gardening soil), pF value: 1.7 (capillaries in a saturated state) (b) Example conditions (salt stress conditions) Cultivation temperature: 23° C., EC: 1.3, 2.0, 3.0 mS/cm (cultivation with Kureha gardening soil), pF value: 1.7 (capillaries in a saturated state)
as §1
The environmental conditions in a climatic chamber were controlled so as to have a temperature of 23° C., an illuminance by a fluorescent light of 5000 Lux, and a daily light-dark cycle of a 16-hour light period and an 8-hour dark period. Tomatoes as prepared above were transplanted in size-3 (9 cm) pots. During the test period, the EC value was controlled by adding a suitable amount of a 10% NaCl solution once a day so as to attain a specific salt stress value. A treatment solution containing a compound of Table 1 in a specific concentration (the remainder was water) was prepared and sprayed onto the leaves or applied to the underground portions. […]

Alkyl (C10) polyglycoside [Product of present invention 15]
Fresh weight, relative value (untreated plot = 100), Test 1 (potato; potato soil culture, EC 1, pF 2.8, two-leaf stage): 121
Fresh weight, relative value (untreated plot = 100), Test 4 (potato; potato soil culture, EC 1, pF 3.5, five-leaf stage): 134
Fresh weight, relative value (untreated plot = 100), Test 2 (potato; potato soil culture, EC 1, pF 3.5, two-leaf stage): 142
Fresh weight, relative value (untreated plot = 100), Test 3 (potato; potato soil culture, EC 1, pF 4.1, two-leaf stage): 121
Fresh weight, relative value (untreated plot = 100), Comparison 1 (potato; stress-free: potato soil culture, EC 1, pF 1.7, two-leaf stage): 102
Fresh weight, relative value (untreated plot = 100), Test 5 (“Momotaro” tomato [1]; hydroponic culture, EC 2.7 mS/cm, two-leaf stage): 125
Fresh weight, relative value (untreated plot = 100), Test 8 (“Momotaro” tomato [1]; hydroponic culture, EC 3.9 mS/cm, five-leaf stage): 138
Fresh weight, relative value (untreated plot = 100), Test 6 (“Momotaro” tomato [1]; hydroponic culture, EC 3.9 mS/cm, two-leaf stage): 145
Fresh weight, relative value (untreated plot = 100), Test 7 (“Momotaro” tomato [1]; hydroponic culture, EC 4.8 mS/cm, two-leaf stage): 125
Fresh weight, relative value (untreated plot = 100), Comparison 2 (“Momotaro” tomato [1]; stress-free: hydroponic culture, EC 1.3 mS/cm, two-leaf stage): 101
Fresh weight, relative value (untreated plot = 100), Test 1 (“Momotaro” tomato [2]; soil culture, EC 1.3 mS/cm, pF 1.7, two-leaf stage): 121
Fresh weight, relative value (untreated plot = 100), Test 4 (“Momotaro” tomato [2]; soil culture, EC 2 mS/cm, pF 1.7, five-leaf stage): 134
Fresh weight, relative value (untreated plot = 100), Test 2 (“Momotaro” tomato [2]; soil culture, EC 2 mS/cm, pF 1.7, two-leaf stage): 142
Fresh weight, relative value (untreated plot = 100), Test 3 (“Momotaro” tomato [2]; soil culture, EC 3 mS/cm, pF 1.7, two-leaf stage): 121
Fresh weight, relative value (untreated plot = 100), Comparison 1 (“Momotaro” tomato [2]; stress-free: soil culture, EC 1 mS/cm, pF 1.7, two-leaf stage): 101
